From patent US20240217947A1, “Morpholinylquinazoline Compound, Pharmaceutical compositions thereof and Use Thereof” (SHANGHAI YINGLI PHARMACEUTICAL CO., LTD, priority 2022, published 2024)

Legend:
Type in all cases: biochemical
HDAC2 = HDAC2 (Homo sapiens, UniProt Q92769); experiment: HDAC2 enzyme activity inhibition IC50 evaluation experiment; conditions: HDAC2 4 nM, acetylated peptide 10 μM, trypsin, fluorescence
Method: (§1) Effect Example 2 HDAC1, HDAC2, HDAC3, HDAC6 enzyme activity inhibition IC50 evaluation experiment
(§2) Buffer solution (50 mM Tris 7.5, 0.01% Tween-20, 50 mM NaCl) was prepared according to the kit instructions, and the enzyme solution and substrate solution (acetylated peptide with the addition of trypsin) were prepared using the buffer solution. The test compound samples were dissolved with DMSO and added to the screening system at a certain starting concentration such as 10 μM, 3-fold dilution, while setting up a DMSO control and no-enzyme control. The enzyme reaction system includes: buffer, enzyme [final concentration: HDAC1=10 nM, HDAC2=4 nM, HDAC3=7 nM, HDAC6=5 nM], substrate (acetylated peptide) [final concentration: Peptide(HDAC1)=8 μM, Peptide(HDAC2)=10 μM, Peptide(HDAC3)=5 μM, Peptide(HDAC6)=11 μM], trypsin [final concentration: Trypsin(HDAC1,2,3)=0.05 μM, Trypsin(HDAC6)=0.1 μM], etc. The enzymes and compounds were reacted at room temperature for 15 min. After adding the substrate and Trypsin, centrifugation was performed for 1 min, and the fluorescence signal data (excitation wavelength 355 nM/emission wavelength 460 nm) was read continuously for 60 min using Envision, and the linear reaction segment was selected to obtain the slope and thus calculate the inhibition rate at that concentration. The IC50 value was obtained by fitting the curve using the formula Y=Bottom+(Top-Bottom)/(1+(IC50/X)^HillSlope).

HDAC1 = HDAC1 (Homo sapiens, UniProt Q13547); experiment: HDAC1 enzyme activity inhibition IC50 evaluation experiment; conditions: HDAC1 10 nM, acetylated peptide 8 μM, trypsin, fluorescence
HDAC1, sequence (Q13547 whole entry, species assumed): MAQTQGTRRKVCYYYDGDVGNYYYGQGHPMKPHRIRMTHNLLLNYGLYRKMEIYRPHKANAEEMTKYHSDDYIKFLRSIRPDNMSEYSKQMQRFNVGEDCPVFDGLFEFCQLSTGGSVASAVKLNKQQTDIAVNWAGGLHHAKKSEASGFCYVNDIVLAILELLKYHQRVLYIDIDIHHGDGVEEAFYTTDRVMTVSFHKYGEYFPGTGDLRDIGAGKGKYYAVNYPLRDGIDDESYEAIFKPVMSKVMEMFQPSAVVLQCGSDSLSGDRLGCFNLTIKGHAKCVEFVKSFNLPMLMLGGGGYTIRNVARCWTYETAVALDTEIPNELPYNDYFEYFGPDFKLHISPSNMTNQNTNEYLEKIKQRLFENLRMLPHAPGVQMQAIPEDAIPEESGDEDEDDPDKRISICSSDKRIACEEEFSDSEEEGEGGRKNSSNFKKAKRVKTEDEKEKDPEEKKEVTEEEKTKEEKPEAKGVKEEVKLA
Method: as §1, §2

PI3Kα = PI3Kα (Homo sapiens, UniProt P42336); experiment: PI3Kα enzyme activity inhibition IC50 evaluation assay (ADP-Glo Kinase Assay); conditions: ATP 25 μM, PIP2 50 μg/mL, 1 hour room temperature, read-out: PI3K-α IC50
PI3Kα, sequence (P42336 whole entry, species assumed): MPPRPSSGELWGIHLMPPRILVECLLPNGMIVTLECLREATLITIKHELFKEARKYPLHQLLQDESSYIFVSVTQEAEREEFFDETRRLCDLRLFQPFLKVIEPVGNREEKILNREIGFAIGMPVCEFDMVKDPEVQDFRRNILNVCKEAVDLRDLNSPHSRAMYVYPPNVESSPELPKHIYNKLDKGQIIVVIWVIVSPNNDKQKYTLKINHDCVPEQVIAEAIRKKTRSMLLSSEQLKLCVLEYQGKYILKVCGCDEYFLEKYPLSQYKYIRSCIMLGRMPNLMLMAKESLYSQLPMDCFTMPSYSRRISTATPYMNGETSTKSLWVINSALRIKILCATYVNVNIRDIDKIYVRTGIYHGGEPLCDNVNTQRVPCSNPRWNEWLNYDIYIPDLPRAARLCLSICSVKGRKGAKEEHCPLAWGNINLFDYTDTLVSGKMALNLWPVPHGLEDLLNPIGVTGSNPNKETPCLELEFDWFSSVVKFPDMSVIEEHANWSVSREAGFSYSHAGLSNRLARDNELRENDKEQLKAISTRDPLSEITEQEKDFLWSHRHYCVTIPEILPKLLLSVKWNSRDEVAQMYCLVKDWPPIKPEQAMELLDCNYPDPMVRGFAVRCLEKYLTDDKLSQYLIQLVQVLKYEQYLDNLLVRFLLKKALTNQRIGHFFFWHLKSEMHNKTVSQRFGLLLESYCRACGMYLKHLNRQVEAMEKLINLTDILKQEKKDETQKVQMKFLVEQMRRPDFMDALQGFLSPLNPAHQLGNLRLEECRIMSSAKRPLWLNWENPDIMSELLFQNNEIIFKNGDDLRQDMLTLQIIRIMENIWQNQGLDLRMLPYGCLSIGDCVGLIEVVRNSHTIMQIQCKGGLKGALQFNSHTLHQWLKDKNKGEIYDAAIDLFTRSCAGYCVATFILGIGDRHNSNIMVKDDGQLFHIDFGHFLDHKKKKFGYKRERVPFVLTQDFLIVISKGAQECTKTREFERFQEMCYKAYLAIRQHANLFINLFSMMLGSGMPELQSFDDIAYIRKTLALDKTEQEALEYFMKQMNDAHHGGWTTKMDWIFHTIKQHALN
PI3Kα, sequence (P27986 whole entry partner, species assumed): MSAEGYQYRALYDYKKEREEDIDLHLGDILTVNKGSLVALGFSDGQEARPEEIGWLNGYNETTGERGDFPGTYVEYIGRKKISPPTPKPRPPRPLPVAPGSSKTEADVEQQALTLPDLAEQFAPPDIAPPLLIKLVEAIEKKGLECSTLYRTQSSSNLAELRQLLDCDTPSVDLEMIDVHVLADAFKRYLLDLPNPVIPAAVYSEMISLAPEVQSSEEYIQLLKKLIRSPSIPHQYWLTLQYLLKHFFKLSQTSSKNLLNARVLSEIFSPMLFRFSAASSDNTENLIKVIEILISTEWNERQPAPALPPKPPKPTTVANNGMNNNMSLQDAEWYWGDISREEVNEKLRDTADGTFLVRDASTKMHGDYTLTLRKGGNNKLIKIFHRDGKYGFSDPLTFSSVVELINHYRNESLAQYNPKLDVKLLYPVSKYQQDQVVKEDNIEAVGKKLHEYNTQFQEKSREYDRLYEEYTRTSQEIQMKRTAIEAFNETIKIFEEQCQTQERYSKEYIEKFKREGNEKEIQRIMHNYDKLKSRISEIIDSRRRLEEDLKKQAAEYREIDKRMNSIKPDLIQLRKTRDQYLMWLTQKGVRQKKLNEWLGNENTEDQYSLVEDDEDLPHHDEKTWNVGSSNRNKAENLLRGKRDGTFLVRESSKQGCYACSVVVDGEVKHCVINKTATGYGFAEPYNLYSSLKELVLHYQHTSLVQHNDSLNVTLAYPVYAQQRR
Method: Effec Example 1 IC50 evaluation assay for PI3Kα, PI3Kδ, PI3Kβ and PI3Kγ enzyme activity inhibition
The experiment was performed using the ADP-Glo Kinase Assay kit, following the instructions. The following buffer solutions were prepared: 50 mM HEPES, pH 7.5, 3 mM MgCl2, 1 mM EGTA, 100 mM NaCl, 0.03% CHAPS, 2 mM DTT. The test compound samples were dissolved in DMSO and added to the screening system at a certain starting concentration such as 10 μM, 3-fold dilution, while setting up both DMSO control and no kinase control. The optimal concentrations of PI3Kα, PI3Kδ, PI3Kβ and PI3Kγ enzymes, substrate (PIP2) and ATP were prepared in buffer. The enzyme reaction system included: buffer, ATP 25 μM, kinase substrate (PIP2, 50 μg/mL), kinases [PI3Kα (0.15 μg/mL), PI3Kδ (1.2 μg/mL), PI3Kβ (0.3 μg/mL) and PI3Kγ (2.5 μg/mL)], etc. The reaction system was reacted at room temperature for 1 hour. The reaction was terminated by adding a termination reagent (ADP-Glo reagent, 5 μL), and the ADP content in the system was detected using a detection reagent (Kinase Detection Reagent, 10 μL). Signal data were collected using the Envision instrument. Calculate the percentage of (%) inhibition according to the following formula: % inhibition=(DMSO control signal value−sample signal value)/(DMSO control signal value−no-kinase control signal value). The IC50 value was obtained by fitting the curve using the formula Y=Bottom+(Top-Bottom)/(1+(IC50/X)^HillSlope).

HDAC3 = HDAC3 (Homo sapiens, UniProt O15379); experiment: HDAC3 enzyme activity inhibition IC50 evaluation experiment; conditions: HDAC3 7 nM, acetylated peptide 5 μM, trypsin, fluorescence
HDAC3, sequence (O15379 whole entry, species assumed): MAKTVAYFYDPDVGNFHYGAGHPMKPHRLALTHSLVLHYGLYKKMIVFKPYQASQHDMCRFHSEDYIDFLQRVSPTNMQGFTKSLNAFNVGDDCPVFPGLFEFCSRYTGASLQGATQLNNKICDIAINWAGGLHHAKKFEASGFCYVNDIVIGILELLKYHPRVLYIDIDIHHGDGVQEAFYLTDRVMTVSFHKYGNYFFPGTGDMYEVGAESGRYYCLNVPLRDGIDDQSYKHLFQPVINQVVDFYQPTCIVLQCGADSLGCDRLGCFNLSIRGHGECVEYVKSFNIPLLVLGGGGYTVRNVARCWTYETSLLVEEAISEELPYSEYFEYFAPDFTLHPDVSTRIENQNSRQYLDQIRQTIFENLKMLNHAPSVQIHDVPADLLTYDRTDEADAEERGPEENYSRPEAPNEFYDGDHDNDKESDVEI
HDAC3, sequence (Q9Y618 395-489 partner limits assumed, species assumed): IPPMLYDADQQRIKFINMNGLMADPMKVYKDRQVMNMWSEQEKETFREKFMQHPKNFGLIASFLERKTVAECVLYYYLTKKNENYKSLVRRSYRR
Method: as §1, §2

HDAC6 = target: T1, HDAC6 (Homo sapiens, UniProt Q9UBN7); experiment: HDAC6 enzyme activity inhibition IC50 evaluation experiment; conditions: HDAC6 5 nM, acetylated peptide 11 μM, trypsin, fluorescence
T1 sequence (Q9UBN7 1-1215): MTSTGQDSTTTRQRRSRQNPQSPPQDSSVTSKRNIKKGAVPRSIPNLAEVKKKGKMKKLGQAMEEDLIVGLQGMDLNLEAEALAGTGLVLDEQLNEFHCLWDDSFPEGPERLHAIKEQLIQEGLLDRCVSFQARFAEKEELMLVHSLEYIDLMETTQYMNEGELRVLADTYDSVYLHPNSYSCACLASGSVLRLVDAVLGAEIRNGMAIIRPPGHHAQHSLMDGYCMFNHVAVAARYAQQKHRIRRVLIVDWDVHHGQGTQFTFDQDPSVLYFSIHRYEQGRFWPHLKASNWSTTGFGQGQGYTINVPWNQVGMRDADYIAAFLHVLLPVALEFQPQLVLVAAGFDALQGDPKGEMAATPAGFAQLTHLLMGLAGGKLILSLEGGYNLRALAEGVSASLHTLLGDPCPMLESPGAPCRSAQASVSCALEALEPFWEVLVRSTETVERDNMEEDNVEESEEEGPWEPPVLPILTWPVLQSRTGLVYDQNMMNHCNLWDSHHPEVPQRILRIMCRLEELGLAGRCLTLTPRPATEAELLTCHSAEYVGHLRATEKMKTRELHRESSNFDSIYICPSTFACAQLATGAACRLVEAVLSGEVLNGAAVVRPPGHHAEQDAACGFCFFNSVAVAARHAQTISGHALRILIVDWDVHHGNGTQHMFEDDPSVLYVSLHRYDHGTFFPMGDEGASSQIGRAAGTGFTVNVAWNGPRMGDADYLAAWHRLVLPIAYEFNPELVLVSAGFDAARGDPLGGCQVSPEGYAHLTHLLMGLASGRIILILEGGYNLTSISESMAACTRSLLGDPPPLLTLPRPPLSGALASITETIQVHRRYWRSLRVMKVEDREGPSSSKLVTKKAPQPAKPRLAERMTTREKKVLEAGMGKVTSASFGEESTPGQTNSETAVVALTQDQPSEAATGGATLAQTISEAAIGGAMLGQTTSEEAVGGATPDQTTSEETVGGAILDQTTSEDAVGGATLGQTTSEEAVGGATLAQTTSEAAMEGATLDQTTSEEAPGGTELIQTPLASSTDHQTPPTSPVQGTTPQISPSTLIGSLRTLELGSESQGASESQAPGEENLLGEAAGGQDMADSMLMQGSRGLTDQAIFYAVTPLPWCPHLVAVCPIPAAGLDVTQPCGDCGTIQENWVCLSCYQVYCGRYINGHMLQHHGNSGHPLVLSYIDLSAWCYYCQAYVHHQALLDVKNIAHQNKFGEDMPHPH
Method: as §1, §2

HDAC2, sequence (Q92769 whole entry, species assumed): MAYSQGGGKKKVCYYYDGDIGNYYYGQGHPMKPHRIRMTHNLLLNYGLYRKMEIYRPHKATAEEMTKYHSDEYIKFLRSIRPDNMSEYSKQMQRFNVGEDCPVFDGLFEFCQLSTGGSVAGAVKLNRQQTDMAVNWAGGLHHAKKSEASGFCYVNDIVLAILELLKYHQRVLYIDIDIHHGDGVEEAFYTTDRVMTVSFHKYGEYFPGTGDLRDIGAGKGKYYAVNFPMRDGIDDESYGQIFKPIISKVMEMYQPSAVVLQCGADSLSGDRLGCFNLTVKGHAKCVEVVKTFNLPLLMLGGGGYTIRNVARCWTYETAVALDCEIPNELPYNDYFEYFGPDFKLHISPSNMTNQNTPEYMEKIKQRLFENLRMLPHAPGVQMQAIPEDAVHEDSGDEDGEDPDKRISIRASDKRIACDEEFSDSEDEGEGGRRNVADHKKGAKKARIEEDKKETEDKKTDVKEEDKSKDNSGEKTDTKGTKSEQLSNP

Row | IC50 (HDAC2) | IC50 (HDAC1) | IC50 (PI3Kα) | IC50 (HDAC3) | IC50 (HDAC6) | SMILES
1 | 10 to 100 nM | 10 to 100 nM | 100 to 1000 nM | 10 to 100 nM | 10 to 100 nM | COc1ncc(-c2nc(N3CCOCC3)nc3c(CN4CCN(c5ncc(C(=O)NO)cn5)CC4)cc(F)cc23)cc1NS(C)(=O)=O [Compound 7]
2 | ≤ 10 nM | ≤ 10 nM | 1000 to 10000 nM | 10 to 100 nM | ≤ 10 nM | COc1ncc(-c2nc(N3CCOCC3)nc3c(OCCCCCCC(=O)NO)cc(F)cc23)cc1NS(C)(=O)=O [Compound 9]
3 | 100 to 1000 nM | 100 to 1000 nM | 100 to 1000 nM | 100 to 1000 nM | 10 to 100 nM | COc1ncc(-c2nc(N3CCOCC3)nc3c(OC4CCN(c5ncc(C(=O)NO)cc5F)CC4)cc(F)cc23)cc1NS(C)(=O)=O [Compound 30]
4 | 10 to 100 nM | ≤ 10 nM |  | 10 to 100 nM | 100 to 1000 nM | COc1ncc(-c2nc(N3CCOCC3)nc3c(OC4CCN(c5ncc(C(=O)NO)cn5)CC4)cc(F)cc23)cc1NS(C)(=O)=O [Compound 39]
5 | 100 to 1000 nM | 10 to 100 nM |  | 100 to 1000 nM | 10 to 100 nM | COc1ncc(-c2nc(N3CCOCC3)nc3c(OC4CCN(c5ccc(C(=O)NO)cn5)CC4)cc(F)cc23)cc1NS(C)(=O)=O [Compound 40]
